In patent US11021521B2, “Pore-modified gram-negative bacteria and uses thereof” (priority 2015, dated 2021):
≈ marks a conversion by molar mass, not a printed value. Read-outs that look alike come from different tables or passages of the source.

How the values were obtained:
Assay in all cases: microbe, parasite or virus in culture
Assay type in all cases: cell-based
[1] = tested on: B. thailandensis BtΔ2-RHA-BtPore (efflux-deficient, hyperporinated)
[2] = tested on: B. cepacia Bc-RHA-BtPore (hyperporinated); conditions: Bc-RHA-BtPore
[3] = tested on: A. baumannii AbΔ3-ARA-EcPore (efflux-deficient, hyperporinated); conditions: AbΔ3-ARA-EcPore, at least three independent measurements
[4] = tested on: B. cepacia Bc-RHA (wild type, empty cassette)
[5] = tested on: A. baumannii AbΔ3-ARA (efflux-deficient); conditions: AbΔ3-ARA, at least three independent measurements
[6] = tested on: P. aeruginosa PaΔ3-LAC (efflux-deficient); conditions: Pseudomonas aeruginosa, at least three independent measurements, read-out: MIC
[7] = tested on: B. thailandensis Bt-RHA (wild type, empty cassette)
[8] = tested on: A. baumannii Ab-ARA (wild type, empty cassette); conditions: at least three independent measurements
[9] = tested on: B. thailandensis BtΔ2-RHA (efflux-deficient)
[10] = tested on: A. baumannii Ab-ARA-EcPore (hyperporinated); conditions: Ab-ARA-EcPore, at least three independent measurements
[11] = tested on: B. thailandensis Bt-RHA-BtPore (hyperporinated)
[12] = tested on: P. aeruginosa PAO1-LAC-EcPore (hyperporinated); conditions: Pseudomonas aeruginosa; PAO1-LAC-EcPore; at least three independent measurements; read-out: MIC
[13] = tested on: P. aeruginosa PaΔ3-LAC-EcPore (efflux-deficient, hyperporinated); conditions: Pseudomonas aeruginosa; PaΔ3-LAC-EcPore; at least three independent measurements; read-out: MIC
[14] = Burkholderia cepacia, read-out: MIC
[15] = Acinetobacter baumannii, read-out: MIC

Molecule	MIC ([1]; Burkholderia thailandensis) [µg/mL]	MIC [2, 14] [µg/mL]	MIC [3, 15] [µg/mL]	MIC [4, 14] [µg/mL]	MIC [5, 15] [µg/mL]	MIC [6] [µg/mL]	MIC ([7]; Burkholderia thailandensis) [µg/mL]	MIC [8, 15] [µg/mL]	MIC ([9]; Burkholderia thailandensis) [µg/mL]	MIC [10, 15] [µg/mL]	MIC ([11]; Burkholderia thailandensis) [µg/mL]	MIC [12] [µg/mL]	further results
CCn1cc(C(=O)O)c(=O)c2ccc(C)nc21 [Nalidixic acid]	1.5 (≈ 6.46 µM)	3 (≈ 12.9 µM)	0.75 (≈ 3.23 µM)	24 (≈ 103 µM)	1.5 (≈ 6.46 µM)	8 (≈ 34.4 µM)	48 (≈ 207 µM)	3 (≈ 12.9 µM)	12 (≈ 51.7 µM)	1.5 (≈ 6.46 µM)	24 (≈ 103 µM)	32 (≈ 138 µM)	MIC [13]: 2 µg/mL (≈ 8.61 µM)
CC[C@H]1OC(=O)[C@H](C)[C@@H](O[C@H]2C[C@@](C)(OC)[C@@H](O)[C@H](C)O2)[C@H](C)[C@@H](O[C@@H]2O[C@H](C)C[C@H](N(C)C)[C@H]2O)[C@](C)(O)C[C@@H](C)C(=O)[C@H](C)[C@@H](O)[C@]1(C)O [Erythromycin]	0.5 (≈ 0.681 µM)	8 to 16 (≈ 10.9 to 21.8 µM)	0.08 (≈ 0.109 µM)			16 (≈ 21.8 µM)	512 (≈ 698 µM)	5 (≈ 6.81 µM)	1 (≈ 1.36 µM)			2 (≈ 2.73 µM)	
O=C(N[C@H](CO)[C@H](O)c1ccc([N+](=O)[O-])cc1)C(Cl)Cl [Chloramphenicol]	1 (≈ 3.09 µM)	4 (≈ 12.4 µM)	4 (≈ 12.4 µM)	16 (≈ 49.5 µM)	8 (≈ 24.8 µM)	1 (≈ 3.09 µM)	8 (≈ 24.8 µM)	32 (≈ 99 µM)	4 (≈ 12.4 µM)	8 (≈ 24.8 µM)	8 (≈ 24.8 µM)	2 (≈ 6.19 µM)	MIC [13]: 0.125 µg/mL (≈ 0.387 µM)
CC1(C)S[C@@H]2[C@H](NC(=O)C(C(=O)O)c3ccccc3)C(=O)N2[C@H]1C(=O)O (stereo partly shown) [Carbenicillin]	8 (≈ 21.1 µM)	128 (≈ 338 µM)	64 (≈ 169 µM)	> 1020	2050 (≈ 5410 µM)	1 (≈ 2.64 µM)		2050 (≈ 5410 µM)	256 (≈ 677 µM)	32 (≈ 84.6 µM)	256 (≈ 677 µM)	2 (≈ 5.29 µM)	MIC [7]: 256 to 512 µg/mL; MIC [13]: 0.125 µg/mL (≈ 0.33 µM)
NC[C@H]1O[C@H](O[C@H]2[C@H](O)[C@@H](O[C@H]3O[C@H](CO)[C@@H](O)[C@H](N)[C@H]3O)[C@H](N)C[C@@H]2N)[C@H](O)[C@@H](O)[C@@H]1O [Kanamycin]	2 (≈ 4.13 µM)	4 to 8 (≈ 8.26 to 16.5 µM)		64 (≈ 132 µM)			> 64		4 (≈ 8.26 µM)		64 (≈ 132 µM)		
Gentamicin													MIC [1]: 2 µg/mL; MIC [2]: 16 µg/mL; MIC [3]: 8 µg/mL; MIC [4]: 128 µg/mL; MIC [5]: 8 µg/mL; MIC [7]: >64 µg/mL; MIC [8]: 4 µg/mL; MIC [9]: 4 µg/mL; MIC [10]: 4 µg/mL; MIC [11]: >64 µg/mL
C[C@H]1c2cccc(O)c2C(=O)C2=C(O)[C@]3(O)C(=O)C(C(N)=O)=C(O)[C@@H](N(C)C)[C@@H]3[C@@H](O)[C@@H]21 [Doxycycline]	0.01 (≈ 0.0225 µM)	3 (≈ 6.75 µM)	0.0016 (≈ 0.0036 µM)	6 (≈ 13.5 µM)	0.0016 (≈ 0.0036 µM)		3 (≈ 6.75 µM)	0.04 (≈ 0.09 µM)	0.02 (≈ 0.045 µM)	0.02 (≈ 0.045 µM)	1.5 (≈ 3.38 µM)		
CC1(C)S[C@@H]2[C@H](NC(=O)[C@H](N)c3ccccc3)C(=O)N2[C@H]1C(=O)O [Ampicillin]		512 (≈ 1470 µM)						2050 (≈ 5860 µM)				16 (≈ 45.8 µM)	
CO[C@H]1/C=C/O[C@@]2(C)Oc3c(C)c(O)c4c(O)c(c(/C=N/N5CCN(C)CC5)c(O)c4c3C2=O)NC(=O)/C(C)=C\C=C\[C@H](C)[C@H](O)[C@@H](C)[C@@H](O)[C@@H](C)[C@H](OC(C)=O)[C@@H]1C [Rifampin]	0.03 (≈ 0.0365 µM)	0.06 (≈ 0.0729 µM)	0.25 (≈ 0.304 µM)	8 (≈ 9.72 µM)	1 (≈ 1.22 µM)		16 (≈ 19.4 µM)	2 (≈ 2.43 µM)	4 (≈ 4.86 µM)	0.5 (≈ 0.608 µM)	8 (≈ 9.72 µM)		
O=C(O)c1cn(C2CC2)c2cc(N3CCNCC3)c(F)cc2c1=O [Ciprofloxacin]				1 (≈ 3.02 µM)									
C[C@H]1COc2c(N3CCN(C)CC3)c(F)cc3c(=O)c(C(=O)O)cn1c23 [Levofloxacin]		0.06 (≈ 0.166 µM)		2 (≈ 5.53 µM)			2 (≈ 5.53 µM)	0.125 (≈ 0.346 µM)		0.125 (≈ 0.346 µM)	1 (≈ 2.77 µM)	0.063 (≈ 0.174 µM)	
